17 compounds from PubChem BioAssay AID248 (DTP/NCI, 2004) can be followed below.

Values joined by “and” are separate entries in the source; they are usually repeats but may differ in a detail not shown here. Identical values can stand only once. Inconclusive results and toxic doses are left out.

The assay relates to L1210 leukemia ip in BDF1 mice, survival T/C. Put plainly: NCI In Vivo Anticancer Drug Screen. Data for tumor model L1210 Leukemia (intraperitoneal) in B6D2F1 (BDF1) mice. The settings on record: endpoint: mean survival time, higher = longer survival. Summed up: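 Antitumor effect is assessed in tumor-bearing animals. Survival in the compound arm is compared with a vehicle-dosed control arm and expressed as their quotient.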

Setting [1] is: dose: 100.0 mg/kg/injection, schedule: Q01DX009 (ip), vehicle: Klucel (hydroxypropylcellulose) (HPC).
Where [2] appears, read: dose: 100.0 mg/kg/injection, schedule: Q04DX003 (ip), vehicle: Klucel (hydroxypropylcellulose) (HPC).
Where [3] appears, read: dose: 200.0 mg/kg/injection, schedule: Q01DX009 (ip), vehicle: Klucel (hydroxypropylcellulose) (HPC).
Setting [4] is: dose: 200.0 mg/kg/injection, schedule: Q04DX003 (ip), vehicle: Klucel (hydroxypropylcellulose) (HPC).
Where [5] appears, read: dose: 400.0 mg/kg/injection, schedule: Q01DX009 (ip), vehicle: Klucel (hydroxypropylcellulose) (HPC).
The mark [6] stands for this setting: dose: 400.0 mg/kg/injection, schedule: Q04DX003 (ip), vehicle: Klucel (hydroxypropylcellulose) (HPC).
Setting [7] is: dose: 100.0 mg/kg/injection, schedule: Q01DX009 (ip), vehicle: saline with Tween-80.
Where [8] appears, read: dose: 100.0 mg/kg/injection, schedule: Q04DX003 (ip), vehicle: saline with Tween-80.
[9] abbreviates: dose: 200.0 mg/kg/injection, schedule: Q01DX009 (ip), vehicle: saline with Tween-80.
Setting [10] is: dose: 200.0 mg/kg/injection, schedule: Q04DX003 (ip), vehicle: saline with Tween-80.
The mark [11] stands for this setting: dose: 400.0 mg/kg/injection, schedule: Q04DX003 (ip), vehicle: saline with Tween-80.
[12] abbreviates: dose: 400.0 mg/kg/injection, schedule: Q01DX009 (ip), vehicle: saline with Tween-80.
The mark [13] stands for this setting: dose: 100.0 mg/kg/injection, schedule: Q04DX002 (ip), vehicle: Klucel (hydroxypropylcellulose) (HPC).
The mark [14] stands for this setting: dose: 200.0 mg/kg/injection, schedule: Q04DX002 (ip), vehicle: Klucel (hydroxypropylcellulose) (HPC).
Setting [15] is: dose: 50.0 mg/kg/injection, schedule: Q01DX009 (ip), vehicle: saline with Tween-80.

For `BrC(Br)c1ccc2ccccc2n1`, the T/C reads like this: under setting [1], 89 % of control; under setting [2], 95 % of control; under setting [3], 94 % of control; under setting [4], 95 % of control; under setting [5], 94 % of control; under setting [6], 97 % of control.

As for `CN(C)c1nc2c(N)ncnc2n1C1OC(CO)C(O)C1O` (stereo not given), the T/C runs as follows: (dose: 6.25 mg/kg/injection, schedule: Q01DX009 (ip), vehicle: saline) 100 % of control; (dose: 12.5 mg/kg/injection, schedule: Q01DX005 (ip), vehicle: saline) 95 % of control; (dose: 12.5 mg/kg/injection, schedule: Q01DX009 (ip), vehicle: saline) 96 % of control; (dose: 25.0 mg/kg/injection, schedule: Q01DX005 (ip), vehicle: saline) 101 % of control; (dose: 25.0 mg/kg/injection, schedule: Q01DX009 (ip), vehicle: saline) 110 % of control; (dose: 50.0 mg/kg/injection, schedule: Q01DX005 (ip), vehicle: saline) 108 % of control.

For the compound `O=C(Nc1ccccc1C(F)(F)F)c1ccccc1Cl`, the T/C runs as follows: (dose: 100.0 mg/kg/injection, schedule: Q01DX009 (ip), vehicle: acetone) 98 % of control; (dose: 200.0 mg/kg/injection, schedule: Q01DX009 (ip), vehicle: acetone) 93 % of control; (dose: 400.0 mg/kg/injection, schedule: Q01DX009 (ip), vehicle: acetone) 93 % of control.

For the compound `COC(=O)c1ccc(OC(=O)Nc2ccccc2[N+](=O)[O-])cc1`, the T/C under setting [7] was 97 % of control and 101 % of control; the T/C (dose: 100.0 mg/kg/injection, schedule: Q04DX002 (ip), vehicle: saline with Tween-80) was 104 % of control and 110 % of control; the T/C under setting [8] was 107 % of control; the T/C under setting [9] is 96 % of control and 92 % of control; the T/C (dose: 200.0 mg/kg/injection, schedule: Q04DX002 (ip), vehicle: saline with Tween-80) was 103 % of control and 104 % of control; the T/C under setting [10] is 113 % of control. Besides, the T/C (dose: 400.0 mg/kg/injection, schedule: Q04DX002 (ip), vehicle: saline with Tween-80) was 94 % of control and the T/C under setting [11] is 101 % of control.

As to `CC(C)(Cc1ccccc1)NC(=O)N(CCCl)N=O`, the T/C was 124 % of control (dose: 31.0 mg/kg/injection, schedule: Q01DX001 (ip), vehicle: other); 151 % of control (dose: 62.0 mg/kg/injection, schedule: Q01DX001 (ip), vehicle: other); 194 % of control (dose: 250.0 mg/kg/injection, schedule: Q01DX001 (ip), vehicle: other); 244 % of control (dose: 375.0 mg/kg/injection, schedule: Q01DX001 (ip), vehicle: other); 273 % of control (dose: 500.0 mg/kg/injection, schedule: Q01DX001 (ip), vehicle: other); 263 % of control (dose: 750.0 mg/kg/injection, schedule: Q01DX001 (ip), vehicle: other). Further, for the setting “dose: 1000.0 mg/kg/injection, schedule: Q01DX001 (ip), vehicle: other”, the T/C is 111 % of control.

Regarding `CCCCCCC(=O)N(CCCCC)CCCCC`, the T/C (dose: 100.0 mg/kg/injection, schedule: Q01DX001 (ip), vehicle: carboxymethylcellulose (CMC)) is 98 % of control; the T/C (dose: 100.0 mg/kg/injection, schedule: Q01DX009 (ip), vehicle: carboxymethylcellulose (CMC)) was 96 % of control and 97 % of control; the T/C (dose: 100.0 mg/kg/injection, schedule: Q04DX002 (ip), vehicle: carboxymethylcellulose (CMC)) is 100 % of control and 102 % of control; the T/C (dose: 100.0 mg/kg/injection, schedule: Q04DX003 (ip), vehicle: carboxymethylcellulose (CMC)) was 93 % of control; the T/C (dose: 200.0 mg/kg/injection, schedule: Q01DX001 (ip), vehicle: carboxymethylcellulose (CMC)) is 94 % of control; the T/C (dose: 200.0 mg/kg/injection, schedule: Q01DX009 (ip), vehicle: carboxymethylcellulose (CMC)) was 96 % of control and 105 % of control. In addition, the T/C (dose: 200.0 mg/kg/injection, schedule: Q04DX002 (ip), vehicle: carboxymethylcellulose (CMC)) is 98 % of control and 100 % of control; the T/C (dose: 200.0 mg/kg/injection, schedule: Q04DX003 (ip), vehicle: carboxymethylcellulose (CMC)) is 95 % of control; the T/C (dose: 400.0 mg/kg/injection, schedule: Q01DX001 (ip), vehicle: carboxymethylcellulose (CMC)) was 104 % of control; the T/C (dose: 400.0 mg/kg/injection, schedule: Q04DX002 (ip), vehicle: carboxymethylcellulose (CMC)) is 98 % of control and 103 % of control; the T/C (dose: 400.0 mg/kg/injection, schedule: Q04DX003 (ip), vehicle: carboxymethylcellulose (CMC)) was 97 % of control.

`CC1=C2C(=O)c3ccccc3C2=C(C)S(=O)(=O)O1`: the T/C is 101 % of control under setting [7]; 98 % of control under setting [8]; 88 % of control under setting [9]; 106 % of control under setting [10]; 94 % of control under setting [12]; 98 % of control under setting [11].

As to `CC1(C)C(=NNc2ccc([N+](=O)[O-])cc2[N+](=O)[O-])C(C)(C)C1(Cl)Cl`, the T/C by setting is: (dose: 50.0 mg/kg/injection, schedule: Q04DX002 (ip), vehicle: Klucel (hydroxypropylcellulose) (HPC)) 97 % of control; under setting [13], 118 % of control; under setting [14], 105 % of control.

On to `c1ccc2cc3nc4cc5ccccc5cc4nc3cc2c1`, for which the T/C reads like this: (dose: 100.0 mg/kg/injection, schedule: Q01DX001 (ip), vehicle: acetone) 95 % of control; under setting [7], 93 % of control; (dose: 200.0 mg/kg/injection, schedule: Q01DX001 (ip), vehicle: acetone) 95 % of control; under setting [9], 103 % of control; (dose: 400.0 mg/kg/injection, schedule: Q01DX001 (ip), vehicle: acetone) 92 % of control; under setting [12], 87 % of control.

On to `C=CC(=O)OCC(C)([N+](=O)[O-])[N+](=O)[O-]`, for which the T/C under setting [15] is 103 % of control, the T/C under setting [7] is 97 % of control, the T/C under setting [8] is 103 % of control and the T/C under setting [10] is 96 % of control.

For `CC(C)(C)c1ccc(Sc2cnccc2C(C)(C)C)cc1`, the T/C (dose: 87.5 mg/kg/injection, schedule: Q04DX003 (ip), vehicle: saline with Tween-80) is 97 % of control; the T/C (dose: 175.0 mg/kg/injection, schedule: Q04DX003 (ip), vehicle: saline with Tween-80) is 102 % of control; the T/C (dose: 350.0 mg/kg/injection, schedule: Q04DX003 (ip), vehicle: saline with Tween-80) was 94 % of control.

As to `CC1(C)C(N2CCOCC2)CS1(=O)=O` (stereo not given), the T/C under setting [15] was 101 % of control; the T/C under setting [7] was 103 % of control; the T/C under setting [8] was 94 % of control; the T/C under setting [9] was 104 % of control; the T/C under setting [10] was 88 % of control.

As to `Cc1ccc(NC(=O)Nc2cccc(Cl)c2)cc1C`, the T/C by setting is: under setting [1], 96 % of control; under setting [2], 90 % of control; under setting [3], 98 % of control; under setting [4], 92 % of control; under setting [5], 95 % of control; under setting [6], 92 % of control.

As for `CN(C)N=Nc1cccc(C(=O)O)c1`, the T/C was 106 % of control (dose: 50.0 mg/kg/injection, schedule: Q04DX002 (ip), vehicle: other); 113 % of control (dose: 100.0 mg/kg/injection, schedule: Q04DX002 (ip), vehicle: other); 113 % of control (dose: 200.0 mg/kg/injection, schedule: Q04DX002 (ip), vehicle: other); 124 % of control (dose: 400.0 mg/kg/injection, schedule: Q04DX002 (ip), vehicle: other).

In the case of `O=C1NNC(=O)C2C3CCC(C3)C12` (stereo not given), the T/C (dose: 50.0 mg/kg/injection, schedule: Q01DX009 (ip), vehicle: saline) is 98 % of control.

In the case of `O=C(/C=C\c1ccccc1)Nc1c(Cl)cc(Cl)cc1Cl`, the T/C was 91 % of control under setting [13]; 107 % of control under setting [14]; 95 % of control (dose: 400.0 mg/kg/injection, schedule: Q04DX002 (ip), vehicle: Klucel (hydroxypropylcellulose) (HPC)).

As to `CCCCC(C#N)C(O)C1CCCCC1` (stereo not given), the T/C runs as follows: (dose: 100.0 mg/kg/injection, schedule: Q01DX001 (ip), vehicle: other) 100 % of control; (dose: 200.0 mg/kg/injection, schedule: Q01DX001 (ip), vehicle: other) 103 % of control; (dose: 400.0 mg/kg/injection, schedule: Q01DX001 (ip), vehicle: other) 103 % of control.
